Values of other authors as cited in patent publication US6875451B2, “Compositions and methods for the treatment of primary and metastatic neoplastic diseases using arsenic compounds” (PolaRx Biopharmaceuticals Inc., priority 1997, dated 2005).

Test system: cell lines representative of chronic B-cell leukemia
Settings: cited from earlier work

For `Nc1nc(N)nc(Nc2ccc([As]3SCC(CO)S3)cc2)n1` (stereo not shown) [melarsoprol], the apoptosis is given as “induce apoptosis”.
